Measurements as given in patent US11655235B2, “Pyrrolidine and piperidine compounds” (YUHAN CORPORATION, priority 2019, dated 2023).
pIC50: −log10 of the molar value.

What was measured:
DPP4 = DPP4 (Homo sapiens, UniProt P27487); test: DPP4 inhibition, fluorogenic substrate H-Gly-Pro-AMC; assay type: biochemical; design: purchased R&D Systems; conditions: for inhibition at 1 µM: read-out: hDPP4 inhibition % at 1 μM
Method: The compounds according to the present technology were evaluated in terms of the inhibitory effect on the activity of dipeptidyl peptidases including FAP by using a substrate producing fluorescent substances upon enzymatic decomposition. The test was conducted at 25° C. to get a final reaction volume of 100 μL in a 96 black well plate. […] Briefly, the test compounds were dissolved in dimethyl sulfoxide (DMSO) at a concentration of 20 mM and then subjected to serial dilution, thereby creating an 8 point curve. As for the control group, a 6 point curve created by serial dilution of Talabostat in the same buffer solution was used. Fluorescence intensity was measured using a microplate reader (Flexstation3, Molecular Devices) under the wavelength condition exciting at 380 nm and reading the emission at 460 nm. The inhibitory effect of the test compounds was measured as a decrease (%) in the signal rate as compared to the control group without any inhibitor. Data was fixed to a logistic model with four variables and IC50 value was calculated using GraphPad Prism program. As for recombinant human DPP4 (R&D Systems), 25 mM tris (pH 8.0) buffer as a buffer solution and H-Gly-Pro-AMC (Bachem) as a substrate were used. As for recombinant human DPP7 (R&D Systems), 25 mM MES (pH 6.0) buffer as a buffer solution and Lys-Pro-AMC (Bachem) as a substrate were used. As for recombinant human DPP8 (PBS Bioscience), as a buffer solution, a 10 mM tris (pH 7.4) buffer comprising 10 mM of magnesium chloride and 0.05% of Tween 20, and Z-Ala-Pro-AMC (BPS Bioscience) as a substrate were used. As for recombinant human DPP9 (R&D Systems), a 25 mM tris (pH 8.0) buffer as a buffer solution and H-Gly-Pro-AMC (Bachem) as a substrate were used. As for recombinant human PREP (R&D System), as a buffer solution, a 25 mM tris (pH 7.5) buffer comprising 250 mM sodium chloride and 2.5 mM DTT (Dithiolthreitol), and Z-Gly-Pro-AMC (Bachem) as a substrate were used. The evaluation was made by using 10 ng of DPP4, PDD7, and PREP, 20 ng of DPP8, and 50 ng of DPP9 based on the final reaction. In the evaluation of DPP4, the test compounds were subjected to serial dilution in a buffer under the condition containing up to 0.1% of DMSO. In the evaluation of DPP7, DPP8, DPP9, and PREP, the test compounds were subjected to serial dilution in each buffer under the condition containing up to 0.5% of DMSO.

Recombinant human FAP = biological target: T1, Recombinant human FAP (Homo sapiens, UniProt Q12884); test: FAP inhibition, fluorogenic substrate Z-Gly-Pro-AMC; assay type: biochemical; conditions: for pIC50: 25° C., Z-Gly-Pro-AMC substrate; for inhibition at 1 µM: read-out: hFAP inhibition % at 1 μM
T1 construct: purchased R&D systems
T1 sequence (Q12884 1-760): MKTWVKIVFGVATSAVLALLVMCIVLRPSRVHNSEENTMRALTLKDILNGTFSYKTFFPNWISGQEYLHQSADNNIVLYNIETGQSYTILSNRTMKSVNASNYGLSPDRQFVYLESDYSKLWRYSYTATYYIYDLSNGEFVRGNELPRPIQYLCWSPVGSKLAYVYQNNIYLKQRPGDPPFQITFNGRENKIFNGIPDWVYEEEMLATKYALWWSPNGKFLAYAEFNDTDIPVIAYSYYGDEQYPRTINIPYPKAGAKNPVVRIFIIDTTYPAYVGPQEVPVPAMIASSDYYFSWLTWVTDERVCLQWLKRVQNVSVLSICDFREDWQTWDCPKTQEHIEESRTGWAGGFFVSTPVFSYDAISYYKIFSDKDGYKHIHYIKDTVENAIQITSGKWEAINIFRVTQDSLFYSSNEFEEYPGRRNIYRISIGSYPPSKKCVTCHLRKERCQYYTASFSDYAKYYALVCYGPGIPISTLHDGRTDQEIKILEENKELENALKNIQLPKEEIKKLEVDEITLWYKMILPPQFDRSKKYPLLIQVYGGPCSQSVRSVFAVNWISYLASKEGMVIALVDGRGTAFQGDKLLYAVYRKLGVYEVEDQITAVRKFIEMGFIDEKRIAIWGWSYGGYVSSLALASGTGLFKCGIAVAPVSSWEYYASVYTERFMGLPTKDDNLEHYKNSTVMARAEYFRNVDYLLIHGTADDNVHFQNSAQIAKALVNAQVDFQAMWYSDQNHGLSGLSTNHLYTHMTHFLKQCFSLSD
Procedure, shortened: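 Recombinant human FAP, 10 ng per reaction, in 50 mM Tris pH 7.5 with 1 M NaCl and 1 mg/ml BSA at 25° C; substrate Z-Gly-Pro-AMC, ≤0.1% DMSO. AMC fluorescence read at ex 380/em 460 nm; % signal-rate decrease vs no-inhibitor control, 8-point curves fitted to a four-parameter logistic for IC50.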

Chain of DPP4 (P27487 whole entry): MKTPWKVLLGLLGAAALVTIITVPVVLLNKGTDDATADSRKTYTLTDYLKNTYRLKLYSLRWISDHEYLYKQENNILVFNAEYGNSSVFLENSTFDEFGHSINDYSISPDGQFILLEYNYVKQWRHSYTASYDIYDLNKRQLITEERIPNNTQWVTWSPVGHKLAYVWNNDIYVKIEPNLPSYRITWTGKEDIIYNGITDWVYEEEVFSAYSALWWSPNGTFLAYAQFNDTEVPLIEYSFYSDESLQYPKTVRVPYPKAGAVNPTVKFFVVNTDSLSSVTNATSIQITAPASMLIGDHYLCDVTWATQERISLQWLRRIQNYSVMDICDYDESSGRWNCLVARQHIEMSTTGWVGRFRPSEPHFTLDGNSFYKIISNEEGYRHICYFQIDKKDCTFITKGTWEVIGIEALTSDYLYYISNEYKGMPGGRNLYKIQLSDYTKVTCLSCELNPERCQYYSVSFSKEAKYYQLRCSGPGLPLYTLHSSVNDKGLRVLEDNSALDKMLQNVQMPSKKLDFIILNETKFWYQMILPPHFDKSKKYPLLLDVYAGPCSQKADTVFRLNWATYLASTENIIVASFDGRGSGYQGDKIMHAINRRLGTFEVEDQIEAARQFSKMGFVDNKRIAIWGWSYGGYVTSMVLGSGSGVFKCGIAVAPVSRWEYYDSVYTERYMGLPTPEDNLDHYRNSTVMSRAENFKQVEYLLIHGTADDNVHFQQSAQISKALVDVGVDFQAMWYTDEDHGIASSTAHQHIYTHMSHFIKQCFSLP

Compound	hDPP4 inhibition % at 1 μM (DPP4)	pIC50 (Recombinant human FAP)	inhibition at 1 µM (DPP4)	inhibition at 1 µM (Recombinant human FAP)
Cc1ccc2cccc(O[C@H]3CCN(CC(=O)N4CCC[C@H]4C#N)C3)c2n1 [Example 78, (S)-1-(2-((S)-3-((2-methylquinolin-8-yl)oxy)pyrrolidin-1-yl)acetyl)pyrrolidine-2-carbonitrile]	No inhibition**	7.65		
N#C[C@@H]1CCCN1C(=O)CN1CC[C@H](Oc2ccnc3cc(Cl)ccc23)C1 [Example 79, (S)-1-(2-((S)-3-((7-chloroquinolin-4-yl)oxy)pyrrolidin-1-yl)acetyl)pyrrolidine-2-carbonitrile]		7.75	4.6%	
N#C[C@@H]1CCCN1C(=O)CN1CC[C@H](Oc2ccnc3cc(Br)ccc23)C1 [Example 80, (S)-1-(2-((S)-3-((7-bromoquinolin-4-yl)oxy)pyrrolidin-1-yl)acetyl)pyrrolidine-2-carbonitrile]		7.69	5.1%	
N#C[C@@H]1CCCN1C(=O)CN1CC[C@H](Oc2cccc(-c3ccccc3)c2)C1 [Example 82, (S)-1-(2-((S)-3-([1,1′-biphenyl]-3-yloxy)pyrrolidin-1-yl)acetyl)pyrrolidine-2-carbonitrile]			6.5%	72.6%
N#C[C@@H]1CCCN1C(=O)CN1CC[C@H](Oc2ccc(-c3ccccc3)cc2)C1 [Example 83, (S)-1-(2-((S)-3-([1,1′-biphenyl]-4-yloxy)pyrrolidin-1-yl)acetyl)pyrrolidine-2-carbonitrile]			6.3%	68.1%
N#C[C@@H]1CCCN1C(=O)CN1CC[C@H](Oc2ccnc3c(F)c(F)ccc23)C1 [Example 85, (S)-1-(2-((S)-3-((7,8-difluoroquinolin-4-yl)oxy)pyrrolidin-1-yl)acetyl)pyrrolidine-2-carbonitrile]		7.70	5.9%	
COC(=O)C1Cc2ccc(O[C@H]3CCN(CC(=O)N4CCC[C@H]4C#N)C3)cc2O1 (stereo partly drawn) [Example 86, Methyl 6-(((S)-1-(2-((S)-2-cyanopyrrolidin-1-yl)-2-oxoethyl)pyrrolidin-3-yl)oxy)-2,3-dihydrobenzofuran-2-carboxylate]			6.8%	70.7%
N#C[C@@H]1CCCN1C(=O)CN1CC[C@H](Oc2ccc(Oc3ccccc3)cc2)C1 [Example 87, (S)-1-(2-((S)-3-(4-phenoxyphenoxy)pyrrolidin-1-yl)acetyl)pyrrolidine-2-carbonitrile]			6.9%	51.9%
N#C[C@@H]1CCCN1C(=O)CN1CC[C@H](Oc2cccc(Oc3ccccc3)c2)C1 [Example 88, (S)-1-(2-((S)-3-(3-phenoxyphenoxy)pyrrolidin-1-yl)acetyl)pyrrolidine-2-carbonitrile]			6.1%	57.9%
N#C[C@@H]1CCCN1C(=O)CN1CC[C@H](Oc2ccc(Cc3ccccc3)cc2)C1 [Example 89, (S)-1-(2-((S)-3-(4-benzylphenoxy)pyrrolidin-1-yl)acetyl)pyrrolidine-2-carbonitrile]			7.9%	56.8%
N#C[C@@H]1CCCN1C(=O)CN1CC[C@H](Oc2ccccc2Cc2ccccc2)C1 [Example 90, (S)-1-(2-((S)-3-(2-benzylphenoxy)pyrrolidin-1-yl)acetyl)pyrrolidine-2-carbonitrile]			7.7%	52.9%
N#C[C@@H]1CCCN1C(=O)CN1CC[C@H](Oc2cccc(C(=O)c3ccccc3)c2)C1 [Example 91, (S)-1-(2-((S)-3-(3-benzoylphenoxy)pyrrolidin-1-yl)acetyl)pyrrolidine-2-carbonitrile]			9.1%	59.2%
N#C[C@@H]1CCCN1C(=O)CN1CC[C@H](Oc2ccc(C(=O)c3ccccc3)cc2)C1 [Example 92, (S)-1-(2-((S)-3-(4-benzoylphenoxy)pyrrolidin-1-yl)acetyl)pyrrolidine-2-carbonitrile]			10.2%	56.4%
N#C[C@@H]1CCCN1C(=O)CN1CC[C@H](Oc2cc(OCc3ccccc3)ccn2)C1 [Example 93, (S)-1-(2-((S)-3-((4-(benzyloxy)pyridin-2-yl)oxy)pyrrolidin-1-yl)acetyl)pyrrolidine-2-carbonitrile]		7.16	11.6%	
N#C[C@@H]1CCCN1C(=O)CN1CC[C@H](Oc2ccnc3cc(C(F)(F)F)ccc23)C1 [Example 94, (S)-1-(2-((S)-3-((7-(trifluoromethyl)quinolin-4-yl)oxy)pyrrolidin-1-yl)acetyl)pyrrolidine-2-carbonitrile]		7.20	6.9%	
N#C[C@@H]1CCCN1C(=O)CN1CC[C@H](Oc2cccc3cc4ccccc4nc23)C1 [Example 96, (S)-1-(2-((S)-3-(acridin-4-yloxy)pyrrolidin-1-yl)acetyl)pyrrolidine-2-carbonitrile]		6.57	11.5%	
N#C[C@@H]1CCCN1C(=O)CN1CC[C@H](Oc2ccccc2-c2nc3ccccc3o2)C1 [Example 97, (S)-1-(2-((S)-3-(2-(benzo[d]oxazol-2-yl)phenoxy)pyrrolidin-1-yl)acetyl)pyrrolidine-2-carbonitrile]			8.3%	36.3%
CC(=O)N1CCN(c2ccc(O[C@H]3CCN(CC(=O)N4CCC[C@H]4C#N)C3)cc2)CC1 [Example 98, (S)-1-(2-((S)-3-(4-(4-acetylpiperazin-1-yl)phenoxy)pyrrolidin-1-yl)acetyl)pyrrolidine-2-carbonitrile]			9.1%	63.2%
N#C[C@@H]1CCCN1C(=O)CN1CC[C@H](Oc2ccccc2C(=O)Nc2ccccc2)C1 [Example 99, 2-(((S)-1-(2-((S)-2-cyanopyrrolidin-1-yl)-2-oxoethyl)pyrrolidin-3-yl)oxy)-N-phenylbenzamide]			10.9%	18.2%
N#C[C@@H]1CCCN1C(=O)CN1CC[C@H](Oc2cc(-c3ccc(Br)cc3)no2)C1 [Example 102, (S)-1-(2-((S)-3-((3-(4-bromophenyl)isoxazol-5-yl)oxy)pyrrolidin-1-yl)acetyl)pyrrolidine-2-carbonitrile]			6.2%	52.4%
N#C[C@@H]1C[C@@H]2C[C@@H]2N1C(=O)CN1CCC(Nc2ccnc3ccccc23)CC1 [Example 112, (1S,3S,5S)-2-(2-(4-(quinolin-4-ylamino)piperidin-1-yl)acetyl)-2-azabicyclo[3.1.0]hexane-3-carbonitrile]	No inhibition**	7.72		
N#C[C@@H]1CCCN1C(=O)CN1CCC(Nc2cncc3ccoc23)CC1 [Example 116, (S)-1-(2-(4-(furo[3,2-c]pyridin-7-ylamino)piperidin-1-yl)acetyl)pyrrolidine-2-carbonitrile]	No inhibition**			82.4%
